Test system: KATO III stomach cancer cell line
Assay: cells
Details: Homo sapiens, 72 h
Description: Antiproliferative activity against FGFR2 amplified human KATO III cells measured after 3 days by MTT assay

Row | IC50 [µM] | Compound
1 | 0.0224 | C[C@@H](Oc1ccc2[nH]nc(/C=C/c3cnn(CCNC(=O)CNc4cccc5c4C(=O)N(C4CCC(=O)NC4=O)C5=O)c3)c2c1)c1c(Cl)cncc1Cl (stereo not given in full)
2 | > 0.05 | Cc1ncsc1-c1ccc(CNC(=O)[C@@H]2C[C@@H](O)CN2C(=O)[C@@H](NC(=O)CCCCCC(=O)NCCn2cc(/C=C/c3n[nH]c4ccc(O[C@H](C)c5c(Cl)cncc5Cl)cc34)cn2)C(C)(C)C)cc1
3 | 0.0175 | C[C@@H](Oc1ccc2[nH]nc(/C=C/c3cnn(CCNC(=O)CCCCNc4cccc5c4C(=O)N(C4CCC(=O)NC4=O)C5=O)c3)c2c1)c1c(Cl)cncc1Cl (stereo not given in full)
4 | 0.0466 | C[C@@H](Oc1ccc2[nH]nc(/C=C/c3cnn(CCNC(=O)/C=C/C(=O)c4ccc(Br)cc4)c3)c2c1)c1c(Cl)cncc1Cl
5 | 0.0101 | COc1ccc(C(=O)/C=C/C(=O)NCCn2cc(/C=C/c3n[nH]c4ccc(O[C@H](C)c5c(Cl)cncc5Cl)cc34)cn2)cc1
6 | 0.0154 | C[C@@H](Oc1ccc2[nH]nc(/C=C/c3cnn(CCNC(=O)/C=C/C(=O)c4ccccc4)c3)c2c1)c1c(Cl)cncc1Cl
7 | > 0.05 | Cc1ncsc1-c1ccc(CNC(=O)[C@@H]2C[C@@H](O)CN2C(=O)[C@@H](NC(=O)CCCCC(=O)NCCn2cc(/C=C/c3n[nH]c4ccc(O[C@H](C)c5c(Cl)cncc5Cl)cc34)cn2)C(C)(C)C)cc1
8 | 0.0149 | C[C@@H](Oc1ccc2[nH]nc(/C=C/c3cnn(CCNC(=O)CCNc4ccc5c(c4)C(=O)N(C4CCC(=O)NC4=O)C5=O)c3)c2c1)c1c(Cl)cncc1Cl (stereo not given in full)
9 | > 0.05 | C[C@@H](Oc1ccc2[nH]nc(/C=C/c3cnn(CCNC(=O)/C=C/C(=O)c4ccc(Cl)cc4)c3)c2c1)c1c(Cl)cncc1Cl
10 | 0.00416 | C[C@@H](Oc1ccc2[nH]nc(/C=C/c3cnn(CCNC(=O)CCNc4cccc5c4C(=O)N(C4CCC(=O)NC4=O)C5=O)c3)c2c1)c1c(Cl)cncc1Cl (stereo not given in full)
11 | 0.0104 | C[C@@H](Oc1ccc2[nH]nc(/C=C/c3cnn(CCNC(=O)CCCNc4ccc5c(c4)C(=O)N(C4CCC(=O)NC4=O)C5=O)c3)c2c1)c1c(Cl)cncc1Cl (stereo not given in full)
12 | 0.00729 | C[C@@H](Oc1ccc2[nH]nc(/C=C/c3cnn(CCNc4ccc5c(c4)C(=O)N(C4CCC(=O)NC4=O)C5=O)c3)c2c1)c1c(Cl)cncc1Cl (stereo not given in full)
13 | 0.047 | C[C@@H](Oc1ccc2[nH]nc(/C=C/c3cnn(CCNC(=O)CNc4ccc5c(c4)C(=O)N(C4CCC(=O)NC4=O)C5=O)c3)c2c1)c1c(Cl)cncc1Cl (stereo not given in full)
14 | 0.00808 | C[C@@H](Oc1ccc2[nH]nc(/C=C/c3cnn(CCNC(=O)CCCNc4cccc5c4C(=O)N(C4CCC(=O)NC4=O)C5=O)c3)c2c1)c1c(Cl)cncc1Cl (stereo not given in full)
15 | 0.0418 | C[C@@H](Oc1ccc2[nH]nc(/C=C/c3cnn(CCNC(=O)/C=C/c4ccc(C(F)(F)F)cc4)c3)c2c1)c1c(Cl)cncc1Cl
16 | 0.0121 | C[C@@H](Oc1ccc2[nH]nc(/C=C/c3cnn(CCNC(=O)/C=C/C(=O)c4ccc(F)cc4)c3)c2c1)c1c(Cl)cncc1Cl
17 | > 0.05 | Cc1ncsc1-c1ccc(CNC(=O)[C@@H]2C[C@@H](O)CN2C(=O)[C@@H](NC(=O)CCC(=O)NCCn2cc(/C=C/c3n[nH]c4ccc(O[C@H](C)c5c(Cl)cncc5Cl)cc34)cn2)C(C)(C)C)cc1
18 | > 0.05 | Cc1ncsc1-c1ccc(CNC(=O)[C@@H]2C[C@@H](O)CN2C(=O)[C@@H](NC(=O)CCCC(=O)NCCn2cc(/C=C/c3n[nH]c4ccc(O[C@H](C)c5c(Cl)cncc5Cl)cc34)cn2)C(C)(C)C)cc1
19 | 0.00493 | C[C@@H](Oc1ccc2[nH]nc(/C=C/c3cnn(CCNC(=O)CCCCCNc4cccc5c4C(=O)N(C4CCC(=O)NC4=O)C5=O)c3)c2c1)c1c(Cl)cncc1Cl (stereo not given in full)
20 | 0.00683 | C[C@@H](Oc1ccc2[nH]nc(/C=C/c3cnn(CCNc4cccc5c4C(=O)N(C4CCC(=O)NC4=O)C5=O)c3)c2c1)c1c(Cl)cncc1Cl (stereo not given in full)
21 | 0.0392 | C[C@@H](Oc1ccc2[nH]nc(/C=C/c3cnn(CCNC(=O)/C=C/c4cccc(C(F)(F)F)c4)c3)c2c1)c1c(Cl)cncc1Cl
22 | > 0.05 | C[C@@H](Oc1ccc2[nH]nc(/C=C/c3cnn(CCNC(=O)/C=C/c4cc(C(F)(F)F)cc(C(F)(F)F)c4)c3)c2c1)c1c(Cl)cncc1Cl
23 | 0.02 | C[C@@H](Oc1ccc2[nH]nc(/C=C/c3cnn(CCNC(=O)CCCCNc4ccc5c(c4)C(=O)N(C4CCC(=O)NC4=O)C5=O)c3)c2c1)c1c(Cl)cncc1Cl (stereo not given in full)
24 | > 0.05 | Cc1ncsc1-c1ccc(CNC(=O)[C@@H]2C[C@@H](O)CN2C(=O)[C@@H](NC(=O)CCC(=O)NCn2cc(/C=C/c3n[nH]c4ccc(O[C@H](C)c5c(Cl)cncc5Cl)cc34)cn2)C(C)(C)C)cc1

Molecular target: Fibroblast growth factor receptor 2 (Homo sapiens, UniProt P21802)
Assay: not given
Details: not given

Chain of Fibroblast growth factor receptor 2 (P21802 whole entry): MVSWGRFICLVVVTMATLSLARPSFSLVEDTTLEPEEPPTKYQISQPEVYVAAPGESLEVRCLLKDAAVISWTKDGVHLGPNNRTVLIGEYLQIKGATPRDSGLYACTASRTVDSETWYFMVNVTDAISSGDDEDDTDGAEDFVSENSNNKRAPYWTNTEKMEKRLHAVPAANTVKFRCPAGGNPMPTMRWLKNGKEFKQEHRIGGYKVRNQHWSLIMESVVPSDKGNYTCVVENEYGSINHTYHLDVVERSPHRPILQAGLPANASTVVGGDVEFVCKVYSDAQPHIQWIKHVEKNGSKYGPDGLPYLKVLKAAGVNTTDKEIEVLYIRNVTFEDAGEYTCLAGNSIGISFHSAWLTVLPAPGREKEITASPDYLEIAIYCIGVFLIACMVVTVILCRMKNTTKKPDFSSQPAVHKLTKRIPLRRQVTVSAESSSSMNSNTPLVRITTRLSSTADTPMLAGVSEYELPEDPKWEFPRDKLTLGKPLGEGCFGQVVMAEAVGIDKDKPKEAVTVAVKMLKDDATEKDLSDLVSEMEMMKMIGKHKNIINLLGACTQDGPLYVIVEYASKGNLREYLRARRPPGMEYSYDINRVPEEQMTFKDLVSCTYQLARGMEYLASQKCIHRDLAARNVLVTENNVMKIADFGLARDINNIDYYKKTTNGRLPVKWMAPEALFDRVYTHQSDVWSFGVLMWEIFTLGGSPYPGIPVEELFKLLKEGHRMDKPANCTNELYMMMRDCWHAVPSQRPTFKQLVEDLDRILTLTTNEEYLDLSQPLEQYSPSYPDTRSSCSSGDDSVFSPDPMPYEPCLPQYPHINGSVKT

Row | IC50 [µM] | Compound
25 | 0.00209 | C[C@@H](Oc1ccc2[nH]nc(/C=C/c3cnn(CCN)c3)c2c1)c1c(Cl)cncc1Cl

Reference: ChEMBL document CHEMBL5579838, “Design, synthesis and antitumor activity of a novel FGFR2-selective degrader to overcome resistance of the FGFR2V564F gatekeeper mutation based on a pan-FGFR inhibitor” (Eur J Med Chem, 2024)
